Results on 3 compounds are retold here after US3972872A, “6-[α-(ω-Guanidinoalkanoylamido)acylamido]penicillanic acids” (Pfizer Inc., priority 1975, dated 1976).

Broadly, the MIC is the lowest concentration that inhibits growth of the organism. Low readings indicate greater potency, high ones weaker potency.

Data set [1] deals with E. coli. Kind of data set: PD50 versus acute systemic E. coli infection in mice. It counts as in vivo. The conditions noted are these: for ED50: Escherichia coli, 96 h, E. coli, mice. An excerpt:
(§1) Additionally, the compounds of this invention are active versus gram-positive and gram-negative bacteria in vivo via the parenteral route of administration in animals, including man. Their in vivo activity in animals, including man, by the oral route of administration is more limited as regards susceptible organisms. Nevertheless, oral in vivo activity against Escherichia coli and Staphylococcus aureus is a common property of many compounds of this invention. Table II below presents the comparative in vivo spectra of several compounds within the scope of this invention against D-α-aminobenzylpenicillin (Ampicillin).
(§2) The acute systemic infections in mice were produced by the intraperitoneal inoculation of standardized cultures suspended in 5% hog gastric mucin. Treatment with the drugs was initiated 0.5 hours after inoculation of the infecting organism. A second dose was administered 4 hours later. The PD50 values were calculated after a hold period of 4 days.

The test system of data set [2] is Escherichia coli 266. Kind of data set: In vivo protection of mice versus Escherichia coli 266. The conditions noted are these: Escherichia coli, 266, sc, 96 h, read-out: % Protection.
Excerpt: as §1, §2

Data set [3] concerns Proteus rettgeri B006. Briefly: In vitro MIC, Proteus rettgeri B006. In kind it is cell-based. The conditions noted are these: unit assumed. An excerpt: (§3) The in vitro activity of the herein-described compounds renders them useful for topical application in the form of ointments, creams and the like, or for sterilization purposes, e.g., sick room utensils.
(§4) The in vitro spectra of a number of 6-[α-(ω-guanidinoalkanoylamido)acylamido]penicillanic acids of this invention against certain gram-negative bacteria are presented in Table I below. […] Th compounds of Table I have the formula

The test system of data set [4] is Proteus mirabilis C020. Briefly: In vitro MIC, Proteus mirabilis C020. In kind it is cell-based. Conditions: unit assumed.
Excerpt: as §3, §4

The subject of data set [5] is Proteus mirabilis C015. Briefly: In vitro MIC, Proteus mirabilis C015. The conditions noted are these: unit assumed. In kind it is cell-based.
Excerpt: as §4

Data set [6] is described as follows: Urine levels and urinary recovery in dogs, single intramuscular dose.
Data set [7] can be described thus: Serum levels in dogs, single intramuscular dose. The conditions noted are these: for Serum Levels: intramuscular 25 mg./kg.
Data set [8] concerns P. aeruginosa. Briefly: PD50 versus acute systemic P. aeruginosa infection in mice. Conditions: for ED50: Pseudomonas aeruginosa, 96 h, read-out: PD50; for activity against Pseudomonas aeruginosa (in words): in vivo. In kind it is in vivo.
Excerpt: as §1, §2

In data set [9] the test system is E. coli 266. Kind of data set: In vitro MIC, E. coli 266, two-fold serial dilution. Conditions: unit assumed. In kind it is cell-based, Escherichia coli.
Excerpt: as §4

Data set [10] concerns Proteus vulgaris A059. Kind of data set: In vitro MIC, Proteus vulgaris A059. It counts as cell-based. The conditions noted are these: unit assumed.
Excerpt: as §4

Data set [11] concerns Pseudo. aeruginosa 104. Kind of data set: In vitro MIC, Pseudo. aeruginosa 104. Conditions: unit assumed. It counts as cell-based, Pseudomonas aeruginosa.
Excerpt: as §4

The subject of data set [12] is S. aureus. Briefly: PD50 versus acute systemic S. aureus infection in mice. It counts as in vivo. The conditions noted are these: for ED50: Staphylococcus aureus, 96 h, S. aureus, mice.
Excerpt: as §1, §2

The test system of data set [13] is Serratia marcescens A001. Briefly: In vitro MIC, Serratia marcescens A001. In kind it is cell-based. The conditions noted are these: unit assumed.
Excerpt: as §4

Data set [14] concerns Pseudo. aeruginosa 490. Kind of data set: In vitro MIC, Pseudo. aeruginosa 490. In kind it is cell-based, Pseudomonas aeruginosa. Conditions: unit assumed.
Excerpt: as §4

Data set [15] deals with Pseudo. aeruginosa 173. Kind of data set: In vitro MIC, Pseudo. aeruginosa 173. It counts as cell-based, Pseudomonas aeruginosa. Conditions: unit assumed.
Excerpt: as §4

Data set [16] can be described thus: in vivo. The conditions noted are these: dog, im, 25 mg/kg.
Setting [17] is: 50 mg./kg., mice, subcutaneous route.

≈ marks a conversion by molar mass, not a printed value. Where two headings read alike, the source gives them in different places.

Turning to `CC1(C)S[C@@H]2[C@H](NC(=O)[C@H](NC(=O)CNC(=N)N)c3ccccc3)C(=O)N2[C@H]1C(=O)O` [A, 6-[D-2-Phenyl-2-(Guanidinoacetamido)Acetamido]Penicillanic Acid], the ED50 in [1] (oral) was 50 mg/kg; in data set [1] (sc, subcutaneous) it was 6 mg/kg; in [8] (po), more than 200 mg/kg; in data set [8] (sc), 41 ± 13 mg/kg; in data set [12] (oral), 68 mg/kg; in data set [12] (sc, subcutaneous), 13 ± 3.9 mg/kg. The “in vivo oral activity against E. coli (in words)” value in data set [1] (oral) is listed as “dual in vivo activity”. Also, the responders at 50 mg/kg in data set [2] turned out to be 100%. Moreover, the MIC in data set [3] was 12.5 µg/mL (≈ 27.9 µM); in data set [4], 1.56 µg/mL (≈ 3.48 µM); in [5] it was 1.56 µg/mL (≈ 3.48 µM); in [9], 1.56 µg/mL (≈ 3.48 µM); in data set [10], 1.56 µg/mL (≈ 3.48 µM); in data set [11] it was 1.56 µg/mL (≈ 3.48 µM). Moreover, the figures for the MIC in [13], in data set [14] and in data set [15] were 6.25 µg/mL (≈ 13.9 µM), 1.56 µg/mL (≈ 3.48 µM) and 1.56 µg/mL (≈ 3.48 µM), respectively. Also, the concentration at 0.5 h was determined as 366 µg/mL in data set [6] (dog, urine, im, 25 mg/kg) and 30.4 µg/mL in data set [7] (dog, serum, im, 25 mg/kg). The concentration at 1 h in data set [6] (dog, urine, im, 25 mg/kg) came out at 710 µg/mL; in data set [7] (dog, serum, im, 0.05 mg/kg) it was 78 µg/mL; in [7] (dog, serum, im, 25 mg/kg), 26.2 µg/mL. Besides, the concentration at 2 h in data set [6] (dog, urine, im, 25 mg/kg) worked out at 1020 µg/mL; in data set [7] (dog, serum, im, 0.05 mg/kg), 48 µg/mL; in data set [7] (dog, serum, im, 25 mg/kg), 10.3 µg/mL. For the same compound, the concentration at 3 h in data set [6] (dog, urine, im, 25 mg/kg) stood at 554 µg/mL; in [7] (dog, serum, im, 25 mg/kg), 2.1 µg/mL. The compound also had a concentration at 4 h in data set [6] (dog, urine, im, 25 mg/kg) of 219 µg/mL. This compound yielded a concentration at 5 h in data set [6] (dog, urine, im, 25 mg/kg) of 130 µg/mL. The compound further displayed a dose excreted in [6] (dog, urine, im, 25 mg/kg) of 35.4%. Also, the “Concentrations in Urine” value in [6] (dogs, intramuscular 25 mg./kg., 0 hours) was found to be 0 ng/mL. In data set [6] (parenteral, dogs), the “total urinary recovery of drug compared with [B] (in words)” value is given as “clearly superior”. Further, the “Serum Levels” value stood at 0 ng/mL in [7] (dogs, 0 hours); 0 ng/mL in data set [7] (dogs, 4 hours); 0 ng/mL in data set [7] (dogs, 6 hours). Besides, the “blood levels of drug compared with [B] (in words)” value in data set [7] (parenteral, dogs) was “clearly superior”. For the same compound, the “activity against Pseudomonas aeruginosa (in words)” value in data set [8] (mice) is given as “active”. The “in vivo oral activity against S. aureus (in words)” value in data set [12] (oral) is “dual in vivo activity”.

As to `CC1(C)S[C@@H]2[C@H](NC(=O)[C@H](NC(=O)NC(=N)N)c3ccccc3)C(=O)N2[C@H]1C(=O)O` [B, 6-[D-2-phenyl-2-(3-guanylureido)acetamido]penicillanic acid], the ED50 is more than 200 mg/kg in data set [1] (oral); 15 ± 6.5 mg/kg in [1] (sc, subcutaneous); more than 200 mg/kg in [8] (P. aeruginosa, oral, mice); 41 ± 13 mg/kg in data set [8] (sc, P. aeruginosa, subcutaneous, mice); more than 100 mg/kg in data set [12] (oral); 18 ± 9.8 mg/kg in [12] (sc, subcutaneous). For the same compound, in [1] (oral), the “in vivo oral activity against E. coli (in words)” value is listed as “lacks oral activity”. In data set [2] (setting [17]), the responders at 50 mg/kg was found to be 100%. Moreover, the MIC turned out to be 0.78 µg/mL (≈ 1.8 µM) in data set [5]; 3.1 µg/mL (≈ 7.13 µM) in data set [9]; 1.56 µg/mL (≈ 3.59 µM) in data set [10]; 2.5 µg/mL (≈ 5.75 µM) in data set [11]; 6.25 µg/mL (≈ 14.4 µM) in data set [13]; 1.5 µg/mL (≈ 3.45 µM) in data set [14]. Further, in data set [15], the minimal inhibitory concentration (MIC) stood at 1.5 µg/mL (≈ 3.45 µM). In data set [16], the concentration at 0.5 h came out at 3.5 µg/mL. Moreover, the concentration at 1 h in [16] amounted to 3.6 µg/mL. In data set [16], this compound returned a concentration at 2 h of 0.8 µg/mL. Also, the “activity against Pseudomonas aeruginosa (in words)” value in data set [8] (mice) is given as “active”. In [12] (oral), the “in vivo oral activity against S. aureus (in words)” value was “lacks oral activity”.

Regarding `CC1(C)S[C@@H]2[C@H](NC(=O)[C@H](NC(=O)C3CCC(NC(=N)N)CC3)c3ccccc3)C(=O)N2[C@H]1C(=O)O` (some centres unmarked) [NH--C(NH)NH2 [3rd of 4], R=H], the responders at 50 mg/kg in data set [2] (setting [17]) was 50%. The MIC came to 50 µg/mL (≈ 96.8 µM) in data set [3]; 25 µg/mL (≈ 48.4 µM) in data set [4]; 6.25 µg/mL (≈ 12.1 µM) in [5]; 6.25 µg/mL (≈ 12.1 µM) in [9]; 50 µg/mL (≈ 96.8 µM) in [10]; 3.12 µg/mL (≈ 6.04 µM) in data set [11]. Also, the minimal inhibitory concentration (MIC) in data set [13] came out at 12.5 µg/mL (≈ 24.2 µM); in data set [14], 6.25 µg/mL (≈ 12.1 µM); in data set [15], 1.56 µg/mL (≈ 3.02 µM).
